Some test systems named below: HOP-62; A498; SW-620; KM12; UACC-257; HCT-15; NCI-H522; OVCAR-5; UO-31; HL-60; SK-MEL-2; RPMI-8226; U-251; SK-MEL-28; SNB-75; A549; CAKI-1; OVCAR-8; Malme-3M; OVCAR-4.
Holding throughout (assay): DTP human tumour cell line panel, 48 h

Eleven compounds from ChEMBL document CHEMBL1201862, “PubChem BioAssay data set” (2004) can be followed below.

Molecules are shown by their SMILES.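 A five-concentration, 48-hour dose response in 96-well plates underlies each endpoint, interpolated linearly between surrounding concentrations. The concentration for 50% growth inhibition is given as GI50.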 The source made the active and inactive calls. Rule as the data show it: active = GI50 up to about 1.1 µM and inactive = higher. Where only a bound is given, the exact number is not on record here.

What is called GI50 is the concentration at which growth is held to half of that of the control. As to `C[S+](C)([O-])=Nn1c(=O)n2n(c1=O)[C@H]1CC[C@@H]2C1`, the GI50 in the test on HOP-62 was > 100 µM (inactive); in the test with A498 it was > 100 µM (inactive); in the test on SW-620, > 100 µM (inactive); in the test on KM12, > 100 µM (inactive); with UACC-257, > 100 µM (inactive); in the test on HCT-15, more than 100 µM. Besides, the GI50 was > 100 µM (inactive) with NCI-H522; > 100 µM (inactive) in the test on OVCAR-5; > 100 µM (inactive) with UO-31; 46.3 µM (inactive) in the test with HL-60; > 100 µM (inactive) in the test with SK-MEL-2; > 100 µM (inactive) with RPMI-8226. Besides, the GI50 in the test on U-251, with SK-MEL-28, in the test on SNB-75, in the test with A549, in the test on CAKI-1 and in the test with OVCAR-8 was > 100 µM (inactive) each time. In addition, the GI50 in the test with Malme-3M was > 100 µM (inactive).
Take `COC(=O)C1=C(OC(=O)/C=C/c2ccc(Cl)cc2)C(C(=O)OC)[C@@]2(O)[C@@H](C(=O)OC)[C@H](C)C[C@@H]1[C@@H]2C(=O)OC` (stereo partly drawn): the GI50 in the test on HOP-62 is 28.8 µM (inactive); in the test on SW-620, 28.4 µM (inactive); in the test on KM12, 34.1 µM (inactive); in the test on UACC-257 it was 45.1 µM (inactive); in the test on HCT-15, 19.3 µM; in the test with NCI-H522, 6.81 µM (inactive). The GI50 with OVCAR-4 is 27.1 µM (inactive); with OVCAR-5, 28.4 µM (inactive); in the test on UO-31, 27 µM (inactive); in the test with HL-60 it was 13.6 µM (inactive); in the test with SK-MEL-2 it was 15.7 µM (inactive); in the test with U-251, 28.4 µM (inactive). Further, the GI50 in the test on SK-MEL-28 is 26.4 µM (inactive); in the test with SNB-75, 25.9 µM (inactive); in the test on A549, 23.2 µM (inactive); in the test on CAKI-1 it was 22.5 µM (inactive); in the test on OVCAR-8 it was 14.6 µM (inactive); in the test with Malme-3M, 11.3 µM (inactive).
In the case of `C[C@]12CC[C@H](O)C=C1CC[C@@H]1[C@@H]2CC[C@]2(C)C(c3ccc(=O)oc3)CC[C@]12O` (stereo partly drawn), the GI50 in the test on HOP-62 is 0.0125 µM (active); in the test with A498 it was 0.0125 µM (active); with SW-620, 0.0149 µM (active); with KM12, 0.0336 µM (active); with UACC-257 it was 0.0181 µM (active); in the test on HCT-15, 0.0175 µM. In addition, the GI50 is 0.0125 µM (active) in the test on NCI-H522; 0.0146 µM (active) in the test on OVCAR-4; 0.108 µM (active) in the test with OVCAR-5; 0.0141 µM (active) in the test on UO-31; 0.0176 µM (active) with SK-MEL-2; 0.0125 µM (active) in the test on RPMI-8226. Also, the concentration for 50% growth inhibition (GI50) is 0.0153 µM (active) in the test with U-251; 0.0266 µM (active) in the test with SK-MEL-28; 0.0156 µM (active) in the test with SNB-75; 0.0125 µM (active) in the test with A549; 0.0151 µM (active) in the test with CAKI-1; 0.015 µM (active) with OVCAR-8. For the same compound, the GI50 in the test on Malme-3M was 0.0135 µM (active).
In the case of `COc1cc(C2C(C(=O)O)=C(CO)Oc3cc4c(cc32)OCO4)cc(OC)c1OC` (stereo not drawn), the GI50 with SW-620 was > 100 µM (inactive); in the test with UACC-257, > 100 µM (inactive); in the test with HCT-15, more than 100 µM; with OVCAR-4, > 100 µM (inactive); in the test on OVCAR-5, > 100 µM (inactive); in the test with UO-31, > 100 µM (inactive). Also, the GI50 with HL-60 was > 100 µM (inactive); with RPMI-8226, > 100 µM (inactive); in the test with U-251 it was > 100 µM (inactive); in the test on SK-MEL-28 it was 83.6 µM (inactive); in the test with SNB-75 it was 40.7 µM (inactive); with A549 it was > 100 µM (inactive). Also, the GI50 in the test with CAKI-1 was 44 µM (inactive); with OVCAR-8 it was > 100 µM (inactive).
Turning to `NC(=S)N/N=C1\c2ccccc2CCC1CCC1(O)CCc2ccccc2C1=O` (stereo not drawn), the GI50 in the test with HOP-62 is 57.4 µM (inactive); in the test on SW-620 it was 28 µM (inactive); in the test with KM12 it was 26.9 µM (inactive); in the test with UACC-257 it was 18 µM (inactive); in the test with HCT-15 it was 39.7 µM; in the test with OVCAR-4, 34 µM (inactive). Also, the GI50 with OVCAR-5 was 26 µM (inactive); in the test on UO-31 it was 12 µM (inactive); in the test on HL-60, 2.74 µM (inactive); in the test with RPMI-8226 it was 24.9 µM (inactive); in the test with U-251, 28.6 µM (inactive); in the test on SK-MEL-28 it was 20.7 µM (inactive). Further, the GI50 in the test with SNB-75 was 15.7 µM (inactive); in the test with A549, 36.1 µM (inactive); with CAKI-1, 58.3 µM (inactive); with OVCAR-8 it was 16.6 µM (inactive); in the test on Malme-3M it was 19.8 µM (inactive).
Consider `CC(NC(C#N)CC12CC3CC(CC(C3)C1)C2)c1ccccc1` (stereo not drawn), for which the GI50 in the test with HOP-62 is > 100 µM (inactive); in the test on A498, > 100 µM (inactive); in the test with SW-620, 54.8 µM (inactive); with UACC-257 it was > 100 µM (inactive); in the test on HCT-15, 56.8 µM; in the test on NCI-H522, > 100 µM (inactive). In addition, the GI50 with OVCAR-5 was 63.8 µM (inactive); with UO-31, 77.8 µM (inactive); with HL-60 it was 18.5 µM (inactive); with RPMI-8226, 15.5 µM (inactive); in the test on U-251 it was 42.2 µM (inactive); with SK-MEL-28, > 100 µM (inactive). The GI50 in the test on A549 is > 100 µM (inactive); in the test with CAKI-1 it was 33.3 µM (inactive); in the test on OVCAR-8, 60.8 µM (inactive); in the test with Malme-3M, > 100 µM (inactive).
Consider `O=C(Nc1nc2ccc([N+](=O)[O-])cc2s1)C(=O)C(C(=O)c1ccccc1F)C1OC(=O)c2ccccc21` (stereo not drawn), for which the GI50 with HOP-62 was 62.2 µM (inactive); with A498, 42.8 µM (inactive); with SW-620 it was 41.3 µM (inactive); in the test on KM12, 55.1 µM (inactive); in the test with UACC-257, 92.5 µM (inactive); in the test on HCT-15, 31.2 µM. Besides, the GI50 was 17.4 µM (inactive) in the test on NCI-H522; 46.8 µM (inactive) in the test on OVCAR-4; 71 µM (inactive) with OVCAR-5; 38 µM (inactive) in the test on UO-31; 20.3 µM (inactive) with HL-60; 20.4 µM (inactive) in the test with SK-MEL-2. Also, the GI50 is 16.4 µM (inactive) with RPMI-8226; 16.9 µM (inactive) with U-251; 32.1 µM (inactive) in the test on SK-MEL-28; 30.9 µM (inactive) in the test with SNB-75; 57 µM (inactive) in the test on A549; 41.4 µM (inactive) in the test on CAKI-1. Also, the GI50 in the test with OVCAR-8 is 47.9 µM (inactive).
Take `CCN(CC)CCCNc1ncc(C)c2[nH]c3ccncc3c12`: the GI50 with HOP-62 is 18.6 µM (inactive); with A498, 17.6 µM (inactive); in the test with SW-620, 4.71 µM (inactive); in the test on KM12 it was 6.18 µM (inactive); in the test on UACC-257, 12.5 µM (inactive); in the test on HCT-15, 35.1 µM. Also, the GI50 in the test on NCI-H522 was 7.74 µM (inactive); in the test with OVCAR-4 it was 4.5 µM (inactive); in the test on OVCAR-5, 4.7 µM (inactive); in the test on UO-31 it was 28.1 µM (inactive); in the test with HL-60, 22 µM (inactive); in the test with SK-MEL-2 it was 10.5 µM (inactive). Moreover, the GI50 is 50.5 µM (inactive) in the test with RPMI-8226; 7.21 µM (inactive) with U-251; 12.9 µM (inactive) with SK-MEL-28; 12.4 µM (inactive) in the test with SNB-75; 4.91 µM (inactive) in the test with A549; 7.29 µM (inactive) in the test on OVCAR-8. Further, the GI50 with Malme-3M is 10.3 µM (inactive).
Take `CC1(C)N=C(N)N=C(N)N1c1ccc(OCCCOc2ccccc2)c(Cl)c1`: the GI50 in the test with A498 is 1.4 µM (inactive); in the test on SW-620, 0.0356 µM (active); with KM12, 0.122 µM (active); with UACC-257, 0.766 µM (active); with HCT-15, 2.48 µM; in the test with NCI-H522 it was 0.247 µM (active). In addition, the GI50 with OVCAR-4 was 0.156 µM (active); in the test with OVCAR-5, 0.295 µM (active); with HL-60 it was 0.0322 µM (active); with SK-MEL-2, 1.37 µM (inactive); in the test with RPMI-8226, 0.547 µM (active); with U-251, < 0.0236 µM (active). Besides, the GI50 with SK-MEL-28 is 0.809 µM (active); with SNB-75 it was 0.948 µM (active); in the test with A549 it was 0.0473 µM (active); with CAKI-1 it was 1.77 µM (inactive); in the test with OVCAR-8 it was 0.514 µM (active); with Malme-3M it was 0.49 µM (active).
As to `CC(=O)C(C(=O)C(=O)Nc1cc(Cl)c(Cl)cc1Cl)c1csc(N)n1` (stereo not drawn), the GI50 was > 100 µM (inactive) with HOP-62; > 100 µM (inactive) in the test with A498; > 100 µM (inactive) in the test with SW-620; > 100 µM (inactive) in the test with KM12; > 100 µM (inactive) in the test on UACC-257; more than 100 µM with HCT-15. The GI50 in the test with NCI-H522, in the test with OVCAR-4, in the test on OVCAR-5, in the test with UO-31, in the test on HL-60 and with SK-MEL-2 was > 100 µM (inactive) each time. Besides, the GI50 with RPMI-8226, in the test on U-251, in the test with SK-MEL-28, with SNB-75, in the test on A549 and in the test with CAKI-1 was > 100 µM (inactive) in each case. For the same compound, the GI50 with OVCAR-8 is > 100 µM (inactive).
For `COc1ccc2c(c1)c1cc(OC)ccc1n2CCCCOc1ccc(-c2c3ccccc3c(-c3ccc(OCCCCn4c5ccc(OC)cc5c5cc(OC)ccc54)cc3)c3ccccc23)cc1`, the GI50 was > 100 µM (inactive) in the test on HOP-62; > 100 µM (inactive) in the test with SW-620; > 100 µM (inactive) in the test with KM12; more than 100 µM in the test with HCT-15; > 100 µM (inactive) with NCI-H522; > 100 µM (inactive) in the test on OVCAR-4. The GI50 in the test on OVCAR-5, in the test on UO-31, in the test with SK-MEL-2, with SK-MEL-28, in the test on SNB-75 and in the test with A549 was > 100 µM (inactive) each time. Moreover, the GI50 with CAKI-1, in the test with OVCAR-8 and in the test on Malme-3M was > 100 µM (inactive) throughout.
